According to patent publication US20090253720A1, “ANTIFOLATE COMPOSITIONS” (Chelsea Therapeutics, Inc., priority 2008, published 2009):
Several values for one entry are separate records, joined by “and”; a condition that tells them apart may be missing. Equal values may be shown once.

How the values were obtained:
[1] = Comparative dissolution in 0.1N hydrochloric acid, USP dissolution apparatus with HPLC (FIG. 2, FIG. 3); format: physicochemical
Protocol: The percent dissolution for both compounds in 0.1N hydrochloric acid as a function of time was evaluated using a standard USP dissolution apparatus and high performance liquid chromatography (HPLC) test equipment. […] This is particularly relevant in the case of pharmaceutical compositions of the invention for oral delivery, wherein the composition will encounter an acidic environment, such as in the stomach. Greater solubility of the sodium salt compound indicates a greater amount of the active compound will be available for absorption.
Such improved solubility is illustrated in FIG. 3, wherein the comparative dissolution of an antifolate compound is given as the percent dissolution as a function of time. The antifolate compound was tested in the diacid form (denoted as “CH-1504 free acid”), in the sodium salt form (denoted as “CH-1504 sodium salt”), and as the sodium salt form in a pharmaceutical composition according to the invention including […]® 44/14 (denoted as “CH-1504 formulation”). Dissolution was tested using 0.1N hydrochloric acid. […] The inventive formulation achieved 90% dissolution by 30 minutes and 100% dissolution by 45 minutes. After 90 minutes, the salt alone and the diacid alone achieved only about 75% dissolution and about 50% dissolution, respectively.

[2] = Comparative dissolution with cyclodextrin formulation (FIG. 4); format: physicochemical; settings: 45 minutes
Text: Compositions according to the invention using cyclodextrins have also shown similarly beneficial results. The improved solubility of the inventive compositions comprising an antifolate compound and a cyclodextrin is illustrated in FIG. 4, wherein the comparative dissolution of an antifolate compound is again given as a percent dissolution as a function of time. The antifolate compound was again tested in the diacid form (denoted as “Free acid”), in the sodium salt form (denoted as “Disodium salt”), and as the sodium salt form in a pharmaceutical composition according to the invention including a cyclodextrin (denoted as “Cyclodextrin formulation”). […] The inventive formulation approached 100% dissolution within 30 minutes. After 45 minutes, the salt alone and the diacid alone achieved only about 70% dissolution and about 45% dissolution, respectively.

[3] = Protocol: A salt screen of this compound was conducted with various pharmaceutically acceptable counterions to analyze aqueous solubility of the formed salts. Formed solids suspected of forming salts were analyzed by X-ray powder diffraction (XRPD).
[4] = Pharmacokinetics of a single oral dose in a healthy subject; settings: human, in vivo
Protocol: The pharmacokinetic parameters of a single oral dose of the antifolate compound according to the invention were evaluated. In Comparative Examples 2-7, 1 to 20 mg of an antifolate compound according to Formula (9) was administered in the racemic free acid form (i.e., not as part of a pharmaceutical formulation). The drug product was supplied as powder-filled gelatin capsules in three active strengths (1.0 mg, 2.5 mg. and 5.0 mg) with each capsule including enough microcrystalline cellulose to bring the total capsule weight to 288 mg. […] In Examples 2-8, the test material was administered to a healthy subject, and blood samples were taken before dosing and at 0.5, 1, 1.5, 2, 2.5, 3, 3.5, 4, 5, 6, 8, 10, 12, 16, 24, and 48 hours after dosing. The calculated pharmacokinetic values observed are provided below in Table 3.
In Table 3, Cmax is the maximum measured plasma concentration of the antifolate compound administered and tmax is the time to Cmax. […] Thus, the pharmaceutical formulations of the present invention allow for greatly reducing the amount of antifolate compound that is administered to a subject while actually increasing the amount of the compound that is available for therapeutic action.

[5] = molecular target: T1, reduced folate carrier (RFC) (Homo sapiens, UniProt P41440); assay: [3H]MTX transport inhibition in intact CCRF-CEM human T-cell leukemia cells; format: cell-based; settings: 2 μM [3H]MTX, 37°, 5 min uptake
T1 construct: endogenous in cells; host or cells: CCRF-CEM human T-cell leukemia cells
T1 sequence (P41440 1-591): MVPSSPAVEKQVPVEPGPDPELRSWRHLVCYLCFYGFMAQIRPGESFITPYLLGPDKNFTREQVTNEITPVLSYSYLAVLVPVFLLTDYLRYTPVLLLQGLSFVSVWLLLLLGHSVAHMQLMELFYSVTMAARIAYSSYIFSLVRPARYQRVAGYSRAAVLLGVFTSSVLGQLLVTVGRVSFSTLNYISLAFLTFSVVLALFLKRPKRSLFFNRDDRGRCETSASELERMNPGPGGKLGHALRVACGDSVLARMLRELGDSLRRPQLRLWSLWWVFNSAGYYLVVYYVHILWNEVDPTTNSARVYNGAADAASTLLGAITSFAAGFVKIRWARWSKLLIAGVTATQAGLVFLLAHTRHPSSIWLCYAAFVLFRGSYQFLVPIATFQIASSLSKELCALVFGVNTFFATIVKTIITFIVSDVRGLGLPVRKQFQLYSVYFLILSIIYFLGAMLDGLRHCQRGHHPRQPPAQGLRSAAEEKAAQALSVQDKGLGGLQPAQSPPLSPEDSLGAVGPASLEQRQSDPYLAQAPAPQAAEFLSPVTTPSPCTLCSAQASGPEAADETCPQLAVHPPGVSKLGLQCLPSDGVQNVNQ
Protocol: Transport of 2 μM [^3H]MTX (methotrexate) at 37° by intact CCRF-CEM human T-cell leukemia was assayed by a micro-method utilizing repeated iced saline washes to remove extracellular drug. Such method is disclosed in McGuire J J, et al., Cancer Res 1989; 49:4517-25 and McGuire J J, et al., Cancer Res 2006; 66:3836-44, both of which are incorporated herein by reference in their entirety. The washed cell pellets were solubilized in 1 ml of 0.3% Triton X-100 at 37° C. for 1 hour before transfer to scintillation vials; 10 ml Ecoscint liquid scintillation fluid (National Diagnostics, Atlanta, Ga.) was added and radioactivity was quantitated in a Beckman LS6500 scintillation counter. […] Uptake was initiated by addition of 200 μL of cells at ≈2.5×10^7 cells/ml and 2 aliquots (100 μL) were removed to iced saline and processed at 5 min. Adventitious [^3H]MTX binding was determined at 0° C. by adding 200 μl of cells to 25 μl of PBS in a tube and cooling to 0° C. in ice for ≧5 min; following addition of 25 μl of [^3H]MTX to achieve a final concentration of 2 μM, 2 aliquots (100 μL) were immediately removed to iced saline and processed.
Analytical HPLC was performed on a Rainin Instruments HPLC system using the Dynamax controller and data capture module run on a Macintosh computer, such as described in McGuire J J, et al., J Biol Chem 1990; 265:14073-9, which is incorporated herein by reference in its entirety. C18 reversed-phase (0.4×25 cm; Rainin Microsorb, 5μ) HPLC was performed at 25° C. Detection was by absorbance at 280 and/or 254 nm. For MTX (tr, ≈31.6 min) and 7-OH-MTX (tr, ≈35.2 min) the gradient was from 4-13% ACN in 0.1 M Na-acetate, pH 5.5 over 41 min at 1 ml/min.

CCRF-CEM cells = assay: Growth inhibition of CCRF-CEM cells by continuous (120 hr) drug exposure; format: cell-based, human; settings: continuous 120 hr exposure
Protocol: The human T-lymphoblastic leukemia cell line CCRF-CEM (described in Foley G F, et al., Cancer 1965; 18:522-9) was cultured as described in McCloskey D E, et al., J Biol Chem 1991; 266:6181-7 (both of which are incorporated herein by reference in their entirety) and verified to be negative for Mycoplasma contamination (Mycoplasma Plus PCR primers, Stratagene, La Jolla, Calif.).

[6] = Plasma concentration after oral L- or D-CH-1504 in non-fasted rats (Example 14); format: in vivo; settings: individual animals; for Plasma conc. of D-CH-1504 / Plasma conc. of L-CH-1504: non-fasted female Lewis rats
Protocol: L- or D-CH-1504 was administered once orally to non-fasted female Lewis rats at a dose of 10 mg/kg (vehicle: 0.11% carboxymethylcellulose/0.45% TWEEN 80, formulation: suspension). About 750 μL of blood was collected from the jugular vein at 1 and 3 hours after administration. And then, whole of blood was collected from the femoral vein under diethyl ether anesthesia at 6 hours after administration. The collected blood was immediately centrifuged to obtain a plasma sample. L- and D-CH-1504 were extracted from the plasma by solid-phase extraction and were then determined with a LC/MS/MS.

[7] = Hygroscopicity study of salts at 75% relative humidity for five days; format: physicochemical
Text: Hygroscopicity and approximate solubility in aqueous and buffered solutions of ammonium, besylate, calcium, esylate, sulfate, HCl, mesylate, napsylate, potassium, disodium, and tosylate salts were compared. In the hygroscopicity study, the salts were subjected to 75% relative humidity for five days.

C=C(CC(NC(=O)c1ccc(CCc2ccc3nc(N)nc(N)c3c2)cc1)C(=O)O)C(=O)O (racemic) [CH-1504, 2-{4-[2-(2,4-diamino-quinazolin-6-yl)-ethyl]-benzoylamino}-4-methylene-pentanedioic acid]
percent dissolution ([1]; FIG. 2, 45 minutes): 45%
percent dissolution ([1]; FIG. 3, 15 minutes): approximately 35%
percent dissolution ([1]; FIG. 3, 90 minutes): about 50%
percent dissolution [2]: about 45%
solubility (in words) [3]: poor solubility
AUC(0-inf) ([4]; 1 mg): 1.52 ng·h/mL
AUC(0-t) ([4]; 1 mg): 1.25 ng·h/mL
Cmax ([4]; 1 mg): 0.69 ng/mL
Tmax ([4]; 1 mg): 2.26 h
half-life ([4]; 1 mg): 0.99 h
AUC(0-inf) ([4]; 5 mg): 9.58 ng·h/mL
AUC(0-t) ([4]; 5 mg): 8.92 ng·h/mL
Cmax ([4]; 5 mg): 2.65 ng/mL
Tmax ([4]; 5 mg): 1.26 h
half-life ([4]; 5 mg): 3.21 h
AUC(0-inf) ([4]; 7.5 mg): 7.47 ng·h/mL
AUC(0-t) ([4]; 7.5 mg): 6.63 ng·h/mL
Cmax ([4]; 7.5 mg): 2.05 ng/mL
Tmax ([4]; 7.5 mg): 1.5 h
half-life ([4]; 7.5 mg): 2.71 h
AUC(0-inf) ([4]; 10 mg): 26 ng·h/mL
AUC(0-t) ([4]; 10 mg): 25.2 ng·h/mL
Cmax ([4]; 10 mg): 6 ng/mL
Tmax ([4]; 10 mg): 2.01 h
half-life ([4]; 10 mg): 3.13 h
AUC(0-inf) ([4]; 15 mg): 25.9 ng·h/mL
AUC(0-t) ([4]; 15 mg): 25 ng·h/mL
Cmax ([4]; 15 mg): 6.57 ng/mL
Tmax ([4]; 15 mg): 2.25 h
half-life ([4]; 15 mg): 3.2 h
AUC(0-inf) ([4]; 20 mg): 35.6 ng·h/mL
AUC(0-t) ([4]; 20 mg): 34.6 ng·h/mL
Cmax ([4]; 20 mg): 7.83 ng/mL
Tmax ([4]; 20 mg): 2.25 h
half-life ([4]; 20 mg): 3.91 h
IC50 [5]: 1700 nM

C=C(C[C@@H](NC(=O)c1ccc(CCc2ccc3nc(N)nc(N)c3c2)cc1)C(=O)O)C(=O)O [D-CH-1504]
IC50 [5]: 7600 nM
EC50 (CCRF-CEM cells): 29 nM
Plasma conc. of D-CH-1504 ([6]; 1 h after 10 mg/kg oral): 31.5 ng/mL and 20.5 ng/mL and 11.0 ng/mL
Plasma conc. of L-CH-1504 ([6]; 1 h after 10 mg/kg oral): 0.895 ng/mL and BLQ (Below limit of quantification (<0.500 ng/mL)) (2×)
Plasma conc. of D-CH-1504 ([6]; 3 h after 10 mg/kg oral): 14.3 ng/mL and 9.44 ng/mL and 8.93 ng/mL
Plasma conc. of L-CH-1504 ([6]; 3 h after 10 mg/kg oral): BLQ (Below limit of quantification (<0.500 ng/mL))
Plasma conc. of D-CH-1504 ([6]; 6 h after 10 mg/kg oral): 8.34 ng/mL and 13.6 ng/mL and 8.01 ng/mL
Plasma conc. of L-CH-1504 ([6]; 6 h after 10 mg/kg oral): BLQ (Below limit of quantification (<0.500 ng/mL))

Nc1nc(N)c2nc(CNc3ccc(C(=O)N[C@@H](CCC(=O)O)C(=O)O)cc3)cnc2n1 [Aminopterin, reference compound]
IC50 [5]: 1500 nM

Cc1ccc(S(=O)(=O)O)cc1.Cn1cc(-c2ccc3nnc(C(F)(F)c4ccc5ncccc5c4)n3n2)cn1 [tosylate salt]
hygroscopicity study outcome [7]: Tacky or gummy solids or solids not exhibiting birefringence and extinction

C=C(C[C@H](NC(=O)c1ccc(CCc2ccc3nc(N)nc(N)c3c2)cc1)C(=O)O)C(=O)O [L-CH-1504, (S)-2-{4-[2-(2,4-diamino-quinazolin-6-yl)-ethyl]-benzoylamino}-4-methylene-pentanedioic acid]
IC50 [5]: 1100 nM
Plasma conc. of D-CH-1504 ([6]; 1 h after 10 mg/kg oral): BLQ (Below limit of quantification (<0.500 ng/mL))
Plasma conc. of L-CH-1504 ([6]; 1 h after 10 mg/kg oral): 139 ng/mL and 118 ng/mL
Plasma conc. of D-CH-1504 ([6]; 3 h after 10 mg/kg oral): BLQ (Below limit of quantification (<0.500 ng/mL))
Plasma conc. of L-CH-1504 ([6]; 3 h after 10 mg/kg oral): 36.8 ng/mL and 59.7 ng/mL
Plasma conc. of D-CH-1504 ([6]; 6 h after 10 mg/kg oral): BLQ (Below limit of quantification (<0.500 ng/mL))
Plasma conc. of L-CH-1504 ([6]; 6 h after 10 mg/kg oral): 22.2 ng/mL and 21.7 ng/mL
concentration at 1 h ([6]; female, Lewis, rat, plasma, oral, 10 mg/kg, 1 h after 10 mg/kg oral, read-out: Plasma conc. of L-CH-1504): 144 ng/mL
concentration at 3 h ([6]; female, Lewis, rat, plasma, oral, 10 mg/kg, 3 h after 10 mg/kg oral, read-out: Plasma conc. of L-CH-1504): 61.9 ng/mL
concentration at 6 h ([6]; female, Lewis, rat, plasma, oral, 10 mg/kg, 6 h after 10 mg/kg oral, read-out: Plasma conc. of L-CH-1504): 22.7 ng/mL
